Data reported in ChEMBL document CHEMBL1201861, “Genomics of Drug Sensitity in Cancer screening data, Wellcome Trust Sanger Institute”.
Several values for one entry are separate records, joined by “and”; a condition that tells them apart may be missing. Equal values may be shown once. Where a SMILES comes first, the peptide text is derived from it. The star is where a group is joined. Cbz = O=C(OCc1ccccc1)*

Experiments:
Test in all cases: cells
DEL = type: functional, cell-based, Homo sapiens;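 also: growth inhibition of the human DEL cell line, read out with a cell viability assay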
Description: SANGER: Inhibition of human DEL cell growth in a cell viability assay.

CGTH-W-1 = type: functional, cell-based, Homo sapiens;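 also: growth inhibition of human CGTH-W-1 cells measured by cell viability assay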
Description: SANGER: Inhibition of human CGTH-W-1 cell growth in a cell viability assay.

RS4-11 = type: functional, cell-based, Homo sapiens;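 also: growth inhibition of RS4-11 cells, read out by a cell viability assay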
Description: SANGER: Inhibition of human RS4-11 cell growth in a cell viability assay.

GAK = type: functional, cell-based, Homo sapiens;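 also: cell growth inhibition read out by a cell viability assay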
Description: SANGER: Inhibition of human GAK cell growth in a cell viability assay.

NCI-H1092 = type: functional, cell-based, Homo sapiens;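 also: cell growth inhibition measured with a cell viability assay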
Description: SANGER: Inhibition of human NCI-H1092 cell growth in a cell viability assay.

D-247MG = type: functional, cell-based; conditions: Homo sapiens
Description: SANGER: Inhibition of human D-247MG cell growth in a cell viability assay.

NOMO-1 = type: functional, cell-based, Homo sapiens;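 also: growth inhibition of human NOMO-1 cells measured by a cell viability assay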
Description: SANGER: Inhibition of human NOMO-1 cell growth in a cell viability assay.

COLO-320-HSR = type: functional, cell-based, Homo sapiens;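 also: growth inhibition of COLO-320-HSR cells, determined with a cell viability assay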
Description: SANGER: Inhibition of human COLO-320-HSR cell growth in a cell viability assay.

HCE-4 = type: functional, cell-based; conditions: Homo sapiens;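 also: cell viability assay measuring inhibition of growth in the human HCE-4 cell line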
Description: SANGER: Inhibition of human HCE-4 cell growth in a cell viability assay.

HEL = type: functional, cell-based, Homo sapiens;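 also: growth inhibition of HEL cells, read out with a cell viability assay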
Description: SANGER: Inhibition of human HEL cell growth in a cell viability assay.

RKO = type: functional, cell-based, Homo sapiens;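 also: growth inhibition of human RKO cells, read out with a cell viability assay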
Description: SANGER: Inhibition of human RKO cell growth in a cell viability assay.

LS-411N = type: functional, cell-based, Homo sapiens
NB10 = type: functional, cell-based, Homo sapiens;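 also: growth inhibition of NB10 cells, read out by a cell viability assay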
Description: SANGER: Inhibition of human NB10 cell growth in a cell viability assay.

A498 = type: functional, cell-based, Homo sapiens;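 also: growth inhibition of human A498 cells, read out with a cell viability assay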
Description: SANGER: Inhibition of human A498 cell growth in a cell viability assay.

KM-H2 = type: functional, cell-based, Homo sapiens;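 also: growth inhibition of KM-H2 cells, read out by a cell viability assay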
Description: SANGER: Inhibition of human KM-H2 cell growth in a cell viability assay.

TK-10 = type: functional, cell-based, Homo sapiens;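 also: growth inhibition of TK-10 cells, read out in a cell viability assay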
Description: SANGER: Inhibition of human TK10 cell growth in a cell viability assay.

J-RT3-T3-5 = type: functional, cell-based, Homo sapiens;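 also: cell viability assay measuring growth inhibition of human J-RT3-T3-5 cells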
Description: SANGER: Inhibition of human J-RT3-T3-5 cell growth in a cell viability assay.

C8166 = type: functional, cell-based, Homo sapiens;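 also: growth inhibition of human C8166 cells measured by a cell viability assay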
Description: SANGER: Inhibition of human C8166 cell growth in a cell viability assay.

COLO-684 = type: functional, cell-based, Homo sapiens
Description: SANGER: Inhibition of human COLO-684 cell growth in a cell viability assay.

TE-8 = type: functional, cell-based, Homo sapiens;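 also: growth inhibition of TE-8 cells, measured with a cell viability readout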
Description: SANGER: Inhibition of human TE-8 cell growth in a cell viability assay.

D283 Med = type: functional, cell-based, Homo sapiens
Description: SANGER: Inhibition of human D-283MED cell growth in a cell viability assay.

UACC-257 = type: functional, cell-based, Homo sapiens
Description: SANGER: Inhibition of human UACC-257 cell growth in a cell viability assay.

NCI-H526 = type: functional, cell-based, Homo sapiens;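 also: growth inhibition of the human NCI-H526 cell line, measured by a cell viability assay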
Description: SANGER: Inhibition of human NCI-H526 cell growth in a cell viability assay.

NCI-H1770 = type: functional, cell-based, Homo sapiens;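 also: growth inhibition of NCI-H1770 cells determined with a viability readout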
Description: SANGER: Inhibition of human NCI-H1770 cell growth in a cell viability assay.

L-428 = type: functional, cell-based, Homo sapiens
Description: SANGER: Inhibition of human L-428 cell growth in a cell viability assay.

SNU-5 = type: functional, cell-based, Homo sapiens;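 also: cell viability readout used to measure growth inhibition in human NCI-SNU-5 cells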
Description: SANGER: Inhibition of human NCI-SNU-5 cell growth in a cell viability assay.

U-87 MG = type: functional, cell-based, Homo sapiens, U-87MG ATCC;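 also: growth inhibition of the cells measured with a viability assay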
Description: SANGER: Inhibition of human U-87-MG cell growth in a cell viability assay.

OVCAR-4 = type: functional, cell-based, Homo sapiens;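 also: growth inhibition of human OVCAR-4 cells, measured with a cell viability assay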
Description: SANGER: Inhibition of human OVCAR-4 cell growth in a cell viability assay.

BT-474 = type: functional, cell-based, Homo sapiens
Description: SANGER: Inhibition of human BT-474 cell growth in a cell viability assay.

IST-SL1 = type: functional, cell-based, Homo sapiens;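 also: growth inhibition of human IST-SL1 cells, read out with a cell viability assay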
Description: SANGER: Inhibition of human IST-SL1 cell growth in a cell viability assay.

NCI-H69 = type: functional, cell-based, Homo sapiens;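 also: growth inhibition of the cell line, read out with a cell viability assay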
Description: SANGER: Inhibition of human NCI-H69 cell growth in a cell viability assay.

PSN1 = type: functional, cell-based, Homo sapiens;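 also: suppression of growth of human PSN1 cells, read out by a cell viability assay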
Description: SANGER: Inhibition of human PSN1 cell growth in a cell viability assay.

NKM-1 = type: functional, cell-based, Homo sapiens;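 also: growth inhibition of NKM-1 cells, read out with a cell viability assay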
Description: SANGER: Inhibition of human NKM-1 cell growth in a cell viability assay.

U-266 = type: functional, cell-based, Homo sapiens
Description: SANGER: Inhibition of human U-266 cell growth in a cell viability assay.

EW-13 = type: functional, cell-based, Homo sapiens; conditions: read-out: IC50;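 also: growth inhibition of EW-13 cells, read out with a cell viability assay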
Description: SANGER: Inhibition of human EW-13 cell growth in a cell viability assay.

DU-4475 = type: functional, cell-based, Homo sapiens
Description: SANGER: Inhibition of human DU-4475 cell growth in a cell viability assay.

SNU1 = type: functional, cell-based, Homo sapiens;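 also: growth inhibition of human NCI-SNU-1 cells, measured with a cell viability assay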
Description: SANGER: Inhibition of human NCI-SNU-1 cell growth in a cell viability assay.

DOHH-2 = type: functional, cell-based, Homo sapiens;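 also: growth inhibition of human DOHH-2 cells, read out with a cell viability assay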
Description: SANGER: Inhibition of human DOHH-2 cell growth in a cell viability assay.

COLO-800 = type: functional, cell-based, Homo sapiens;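 also: growth inhibition of COLO-800 cells, read out with a cell viability assay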
Description: SANGER: Inhibition of human COLO-800 cell growth in a cell viability assay.

Becker = type: functional, cell-based, Homo sapiens;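 also: growth inhibition of Becker cells, read out with a cell viability assay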
Description: SANGER: Inhibition of human Becker cell growth in a cell viability assay.

SNU-C2B = type: functional, cell-based; conditions: Homo sapiens;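 also: cell viability readout used to measure compound-driven suppression of SNU-C2B cell proliferation, IC50 marking half-maximal growth inhibition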
Description: SANGER: Inhibition of human SNU-C2B cell growth in a cell viability assay.

DMS-114 = type: functional, cell-based, Homo sapiens
COLO-829 = type: functional, cell-based, Homo sapiens
Description: SANGER: Inhibition of human COLO-829 cell growth in a cell viability assay.

SK-NEP-1 = type: functional, cell-based, Homo sapiens;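 also: growth inhibition of human SK-NEP-1 cells, read out by a cell viability assay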
Description: SANGER: Inhibition of human SK-NEP-1 cell growth in a cell viability assay.

ATN-1 = type: functional, cell-based, Homo sapiens;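 also: growth inhibition of human ATN-1 cells, read out with a cell viability assay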
Description: SANGER: Inhibition of human ATN-1 cell growth in a cell viability assay.

A704 = type: functional, cell-based; conditions: Homo sapiens;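 also: growth inhibition of human A704 cells, read out with a cell viability assay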
Description: SANGER: Inhibition of human A704 cell growth in a cell viability assay.

NEC8 = type: functional, cell-based, Homo sapiens;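 also: growth inhibition of human NEC8 cells, read out by a cell viability assay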
Description: SANGER: Inhibition of human NEC8 cell growth in a cell viability assay.

LXF-289 cell line = type: functional, cell-based; conditions: Homo sapiens
Description: SANGER: Inhibition of human LXF-289 cell growth in a cell viability assay.

CTV-1 = type: functional, cell-based, Homo sapiens;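 also: growth inhibition of the cell line, read out with a cell viability assay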
Description: SANGER: Inhibition of human CTV-1 cell growth in a cell viability assay.

NCI-N87 = type: functional, cell-based; conditions: Homo sapiens;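 also: growth inhibition of human NCI-N87 cells, read out with a cell viability assay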
Description: SANGER: Inhibition of human NCI-N87 cell growth in a cell viability assay.

Measured: IC50

COc1ccc(N(C(=O)Oc2c(C)cccc2C)c2ccnc(Nc3ccc(N4CCN(C)CC4)cc3)n2)c(OC)c1
0.239 µM: TE-8; Homo sapiens, TE-8
1.08 µM: TK-10; Homo sapiens, TK-10
2.79 µM: DMS-114; Homo sapiens, DMS-114
0.0638 µM: Becker; Homo sapiens, Becker
> 5.12 µM: DEL; Homo sapiens, DEL | CGTH-W-1; Homo sapiens, CGTH-W-1 | RS4-11; Homo sapiens, RS4-11 | GAK; Homo sapiens, GAK | NCI-H1092; Homo sapiens, NCI-H1092 | D-247MG | NOMO-1; Homo sapiens, NOMO-1 | COLO-320-HSR; Homo sapiens, COLO-320-HSR | HCE-4 | HEL; Homo sapiens, HEL | RKO; Homo sapiens, RKO | LS-411N; Homo sapiens, LS-411N | NB10; Homo sapiens, NB10 | KM-H2; Homo sapiens, KM-H2 | J-RT3-T3-5; Homo sapiens, J-RT3-T3-5 | C8166; Homo sapiens, C8166 | COLO-684; Homo sapiens, COLO-684 | D283 Med; Homo sapiens, D283 Med | UACC-257; Homo sapiens, UACC-257 | NCI-H526; Homo sapiens, NCI-H526 | NCI-H1770; Homo sapiens, NCI-H1770 | L-428; Homo sapiens, L-428 | SNU-5; Homo sapiens, SNU-5 | U-87 MG; Homo sapiens, U-87 MG | OVCAR-4; Homo sapiens, OVCAR-4 | BT-474; Homo sapiens, BT-474 | IST-SL1; Homo sapiens, IST-SL1 | NCI-H69; Homo sapiens, NCI-H69 | PSN1; Homo sapiens, PSN1 | NKM-1; Homo sapiens, NKM-1 | U-266; Homo sapiens, U-266 | EW-13; Homo sapiens, EW-13 | DU-4475; Homo sapiens, DU-4475 | SNU1; Homo sapiens, SNU1 | COLO-800; Homo sapiens, COLO-800 | SNU-C2B | SK-NEP-1; Homo sapiens, SK-NEP-1 | ATN-1; Homo sapiens, ATN-1 | NEC8; Homo sapiens, NEC8
0.189 µM: A498; Homo sapiens, A498
< 0.02 µM: DOHH-2; Homo sapiens, DOHH-2 | A704 | CTV-1; Homo sapiens, CTV-1
0.312 µM: COLO-829; Homo sapiens, COLO-829
1.27 µM: LXF-289 cell line

CC(C)C[C@@H](C=O)NC(=O)[C@H](CC(C)C)NC(=O)[C@H](CC(C)C)NC(=O)OCc1ccccc1 [MG-132] (Cbz-Leu-Leu-Leu-aldehyde)
0.109 µM and > 1 µM: OVCAR-4; ovcar-4
0.343 µM: TE-8; Homo sapiens, TE-8
0.201 µM and > 1 µM: IST-SL1; ist-sl1
0.254 µM and > 1 µM: TK-10; tk-10
> 1 µM and 0.932 µM: RKO; rko
0.205 µM and > 1 µM: GAK; gak
0.243 µM and > 1 µM: COLO-829; colo-829
0.388 µM and > 1 µM: NCI-H1092; nci-h1092
0.707 µM: SNU-C2B
0.695 µM and > 1 µM: SNU-5; snu-5
0.12 µM and > 1 µM: NEC8; nec8
0.197 µM and > 1 µM: DU-4475; du-4475
0.119 µM and > 1 µM: UACC-257; uacc-257
> 1 µM and 0.956 µM: RS4-11; rs4-11
0.907 µM and > 1 µM: COLO-684; colo-684
0.487 µM: A704
> 1 µM: DEL; del | CGTH-W-1; cgth-w-1 | NOMO-1; Homo sapiens, NOMO-1 | NOMO-1; nomo-1 | COLO-320-HSR; colo-320-hsr | HCE-4 | LS-411N; ls-411n | NB10; nb10 | A498; Homo sapiens, A498 | A498; a498 | KM-H2; Homo sapiens, KM-H2 | KM-H2; km-h2 | J-RT3-T3-5; j-rt3-t3-5 | C8166; c8166 | D283 Med; d283 med | NCI-H526; nci-h526 | NCI-H1770; nci-h1770 | L-428; Homo sapiens, L-428 | L-428; l-428 | U-87 MG; Homo sapiens, U-87 MG | U-87 MG; u-87mg atcc | BT-474; bt-474 | PSN1; psn1 | NKM-1; nkm-1 | U-266; u-266 | EW-13; Homo sapiens, EW-13 | EW-13; ew-13 | SNU1; snu1 | DOHH-2; dohh-2 | COLO-800; colo-800 | DMS-114; dms-114 | SK-NEP-1; sk-nep-1 | ATN-1; atn-1 | NCI-N87 | CTV-1; ctv-1
0.27 µM: TE-8; te-8
0.185 µM and > 1 µM: HEL; hel
0.796 µM and > 1 µM: Becker; becker
0.151 µM and > 1 µM: NCI-H69; nci-h69
